{"source": "patent EP0156091A1", "about": "“Beta-oxo-alpha-carbamoyl-pyrrolepropionitriles, processes for their preparation, pharmaceutical compositions comprising these compounds and their therapeutic use” (CIBA-GEIGY AG, priority 1984, dated 1985)", "key": {"[1]": {"tested_on": "durch Carrageenin hervorgerufenen Oedem", "test": "Carrageenan paw oedema test", "format": "in vivo, Ratte", "conditions": "rat", "description": "Der Carrageenin-Photenödem-Test in Hinsicht auf die antiinflammatorische Wirkung wird an der Ratte wie folgt durchgeführt: • Eine Stunde nach der oralen Verabreichung der Wirksubstanz wird in die Sohle einer hinteren Pfote 0,1 ml Carrageenin (1%-ig) injiziert. In bestimmten Zeiten wird dann die Differenz der Schwellung zwischen der behandelten und der intakten gegenseitigen Pfote durch Quecksilber-Verdrängung gemessen.\nAls Beispiele der Erfindung seien das ß-0xo-a-(phenylcarbamoyl)-ß-(2-pyrrolyl)-propionitril des Beispeils 1 und das ß-0xo-a-(4-chlorphenyl)-ß-(2-pyrrolyl)-propionitril des Beispiels 2 genannt, welche bei einer peroralen Dosis von 100 mg/kg, gegen die durch Carrageenin hervorgerufenen Oedem an der Ratte, 3 Stunden nach der Verabreichung, einen 46 bzw. 63%-igen Schutz gewähren. Analog ergibt das β-Oxo-α-(2,4- difluorphenylcarbamoyl)-ß-(2-pyrrolyl)-propionitril des Beispiels 3, bei einer Dosis von 25 mg/kg/p.o. einen 33%-igen Schutz."}, "Adjuvans-Arthritis": {"tested_on": "Adjuvans-Arthritis", "test": "Adjuvant arthritis test", "format": "in vivo, Ratte", "conditions": "rat, 25 mg/kg/p.o.", "description": "Der übliche Adjuvans-Arthritis-Test für die anti-arthritische Aktivität wird im wesentlichen wie in Proc. Soc. Exp. Biol. Med. 137, 506 (1971) durchgeführt.\nWeiter sind die Verbindungen der Erfindung, z.B. die vorher genannten Verbindungen der Beispiele 1, 2 und 3 in dem üblichen Adjuvans- Arthritis-Test an der Ratte bei einer Dosis von 25 mg/kg/p.o. aktiv und sie gewähren einen Schutz von 47%, 58% bzw. 55Z.\nBeispiel 13: Der Schutz im üblichen Adjuvans-Arthritis-Test, der im wesentlichen gemäss Proc. Soc. Exp. Biol. Med. 137, 506 (1971) durchgeführt wird, ist wie folgt: […]"}, "[2]": {"tested_on": "BCG immunisierten Adjuvans-Arthritis-Ratte", "test": "Skin test (delayed hypersensitivity, PPD) in BCG-immunised adjuvant arthritis rat", "format": "in vivo", "conditions": "25 mg/kg/p.o.", "text": "Die Erhöhung der durch die Zellen vermittelten Immunität wird in-vivo an der mit BCG-immunisierten arthritischen Ratten durch Messung der Verzögerung der Ueberempfindlichkeitsreaktion, im wesentlichen wie in Current Therapeutic Research 30, S 34 (1981) beschrieben, gemessen.\nMännliche Charles River Ratten von einem Gewicht von 325-400 g werden sensibilisiert, indem man jedem Versuchstier in die rechte hintere Pfotensohle […] Mycobacterium tuberculosis (Difco), das in Freund' schem Adjuvans (Freund's incomplete adjuvant) suspendiert ist, injiziert. Die Tiere werden am 18. Tag nach der Adjuvans-Injektion mit 0,1 ml BCG-Vakzine intradermal immunisiert. Die Wirksubstanz wird peroral in einer Maisstärke-Suspension verabreicht. Die Kontrolltiere werden lediglich mit der Maisstärke behandelt. Alle Tiere werden am 29. Tag an der Haut durch intradermale Verabreichung von 10 pg PPD (purified protein derivative) getestet, um Hautreaktionen hervorzurufen. Der Durchmesser des Erythems und die Erhärtungsreaktion werden 24 Stunden nach der Antigen-Behandlung gemessen. Eine […] des Erythem-Durchmessers deutet auf die erhöhte Zellenimmunität hin."}, "[3]": {"conditions": "100 mg/kg peroral, 3 hours after administration"}}}
{"smiles": "N#CC(C(=O)Nc1ccc(F)cc1F)C(=O)c1ccc[nH]1", "note": "(stereo not shown) [Beispiel 3, ß-0xo-a-(2,4-difluorphenylcarbamoyl)-ß-(2-pyrrolyl)-propionitril]", "values": [{"measurement": "Schutz gegen die durch Carrageenin hervorgerufenen Oedem", "setting": "[1]; 25 mg/kg/p.o.", "result": 33, "unit": "%"}]}
{"smiles": "N#CC(C(=O)Nc1ccccc1)C(=O)c1ccc[nH]1", "note": "(stereo not shown) [Beispiel 1, ß-Oxo-a-(phenylcarbamoyl)-ß-(2-pyrollyl)-propionitril]", "values": [{"measurement": "Schutz gegen die durch Carrageenin hervorgerufenen Oedem", "setting": "[1]; [3]", "result": 46, "unit": "%"}, {"measurement": "Schutz im Adjuvans-Arthritis-Test", "setting": "Adjuvans-Arthritis", "result": 47, "unit": "%"}, {"measurement": "Wirkung im Haut-Test (immunopotenzierende Wirkung)", "setting": "[2]", "result": "signifikante Wirkung"}]}
{"smiles": "N#CC(C(=O)Nc1ccc(Cl)cc1)C(=O)c1ccc[nH]1", "note": "(stereo not drawn) [Beispiel 2, β-Oxo-α-(4-chlorphenylcarbamoyl)-ß-(2-pyrrolyl)-propionitril]", "values": [{"measurement": "Schutz gegen die durch Carrageenin hervorgerufenen Oedem", "setting": "[1]; [3]", "result": 63, "unit": "%"}, {"measurement": "Schutz im Adjuvans-Arthritis-Test", "setting": "Adjuvans-Arthritis", "result": 58, "unit": "%"}, {"measurement": "Wirkung im Haut-Test (immunopotenzierende Wirkung)", "setting": "[2]", "result": "signifikante Wirkung"}]}
